Measured values taken from US20210338728A1, “METHODS AND COMPOSITIONS FOR THE EXPANSION AND USE OF ALLOGENEIC GAMMA/DELTA-T CELLS” (Phosphogam, Inc., priority 2018, published 2021).

System: γδ-T cells
Test: Ex vivo expansion of human γδ-T cells from healthy donor PBMC with C-HDMPP and IL-2, flow cytometry at day 21
Assay type: cell-based
Excerpt: Peripheral blood mononuclear cells (PBMC) were isolated from peripheral blood obtained by venipuncture from a healthy individual. Fresh blood was collected using standard aseptic technique. PBMC were isolated utilizing a standard density gradient centrifugation method. PBMC were washed in PBS, then resuspended in complete RPMI-1640 supplemented with 10% characterized fetal bovine serum and PCN+streptomycin.
Cell cultures were initiated by seeding PBMC into tissue culture flasks to which recombinant human IL-2 was added. γδ-T cell expansion was initiated by the addition of C-HDMPP. Cultures were maintained at 37° C., 5% CO2 in incubators situated within a BSL2 containment environment. Fresh media was added as needed to keep cell concentration at approximately 1×10^6 cells/ml. Human IL-2 was added every 5 days. Cultures were maintained for 21 days at which time they were analyzed by flow cytometry. […] At 100 nM C-HDMPP the cultures were ≥96% pure γδ-T cells with viability ≥96%.

[1] = 100 nM C-HDMPP, 21 days of culture with IL-2, flow cytometry

Compound: C/C(=C\CCP(=O)(O)OP(=O)(O)O)CO [C-HDMPP]
- purity of γδ-T cells in the cultures [1]: ≥ 96%
- viability of the cultures [1]: ≥ 96%
- γδ-T cell growth (expansion) versus concentration (nanomolar concentrations, 21 days, FIG. 1): can be titrated to promote optimal γδ-T cell growth while avoiding overstimulation
